# Assay results: patent publication US9045445B2, “Glycine transporter-1 inhibitors, methods of making them, and uses thereof” (Albany Molecular Research, Inc., priority 2010, dated 2015)
# Counter-ions that a name gives are not always drawn.
# Legend:
# [1] = target: T1, glycine transporter-1 (GlyT-1) (Homo sapiens, UniProt P48067); test: [14C]glycine uptake assay in JAR cells endogenously expressing GlyT-1 (scintillation proximity); assay type: cell-based; settings: JAR cells, [14C]glycine 5 μM, 3 hour incubation; read-out: GlyT-1 IC50
# T1 construct: JAR cells (ATCC#HTB-144), which endogenously express GlyT-1; host or cells: JAR human choriocarcinoma cells
# T1 sequence (P48067 1-706): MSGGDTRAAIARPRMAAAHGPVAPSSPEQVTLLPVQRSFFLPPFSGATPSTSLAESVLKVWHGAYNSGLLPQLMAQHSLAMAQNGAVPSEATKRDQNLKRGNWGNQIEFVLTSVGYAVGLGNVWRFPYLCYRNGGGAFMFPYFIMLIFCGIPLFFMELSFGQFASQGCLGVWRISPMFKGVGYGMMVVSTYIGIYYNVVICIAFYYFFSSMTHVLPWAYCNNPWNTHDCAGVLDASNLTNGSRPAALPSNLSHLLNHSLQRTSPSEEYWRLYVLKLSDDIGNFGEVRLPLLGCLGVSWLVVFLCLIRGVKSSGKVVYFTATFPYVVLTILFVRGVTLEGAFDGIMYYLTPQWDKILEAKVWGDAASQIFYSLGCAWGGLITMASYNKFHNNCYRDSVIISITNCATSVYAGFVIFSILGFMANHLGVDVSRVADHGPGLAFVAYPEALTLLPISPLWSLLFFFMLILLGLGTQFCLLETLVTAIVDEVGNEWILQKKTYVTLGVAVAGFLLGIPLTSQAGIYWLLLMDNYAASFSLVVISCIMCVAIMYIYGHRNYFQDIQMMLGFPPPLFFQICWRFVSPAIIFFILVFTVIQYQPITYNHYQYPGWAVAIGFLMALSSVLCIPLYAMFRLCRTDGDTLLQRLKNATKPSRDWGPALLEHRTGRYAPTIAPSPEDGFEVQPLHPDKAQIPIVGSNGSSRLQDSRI
# Summary of the method: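 Human choriocarcinoma JAR cells (endogenous GlyT-1) attached overnight, then pre-incubated 10 min at room temperature with compound in pH 7.4 Hepes uptake buffer containing 5 mM alanine and 0.75% DMSO. Uptake of 5 μM [14C]glycine over 3 h at 37 °C read by scintillation proximity; IC50 from four-parameter fit of nine-point curves.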
# [2] = target: T2, glycine transporter-2 (GlyT-2) (Homo sapiens, UniProt Q9Y345); test: [14C]glycine uptake assay in HEK-GlyT-2 transfected cells; assay type: cell-based; settings: HEK-GlyT-2 cells
# T2 construct: expressed in transfected cells
# T2 sequence (Q9Y345 1-797): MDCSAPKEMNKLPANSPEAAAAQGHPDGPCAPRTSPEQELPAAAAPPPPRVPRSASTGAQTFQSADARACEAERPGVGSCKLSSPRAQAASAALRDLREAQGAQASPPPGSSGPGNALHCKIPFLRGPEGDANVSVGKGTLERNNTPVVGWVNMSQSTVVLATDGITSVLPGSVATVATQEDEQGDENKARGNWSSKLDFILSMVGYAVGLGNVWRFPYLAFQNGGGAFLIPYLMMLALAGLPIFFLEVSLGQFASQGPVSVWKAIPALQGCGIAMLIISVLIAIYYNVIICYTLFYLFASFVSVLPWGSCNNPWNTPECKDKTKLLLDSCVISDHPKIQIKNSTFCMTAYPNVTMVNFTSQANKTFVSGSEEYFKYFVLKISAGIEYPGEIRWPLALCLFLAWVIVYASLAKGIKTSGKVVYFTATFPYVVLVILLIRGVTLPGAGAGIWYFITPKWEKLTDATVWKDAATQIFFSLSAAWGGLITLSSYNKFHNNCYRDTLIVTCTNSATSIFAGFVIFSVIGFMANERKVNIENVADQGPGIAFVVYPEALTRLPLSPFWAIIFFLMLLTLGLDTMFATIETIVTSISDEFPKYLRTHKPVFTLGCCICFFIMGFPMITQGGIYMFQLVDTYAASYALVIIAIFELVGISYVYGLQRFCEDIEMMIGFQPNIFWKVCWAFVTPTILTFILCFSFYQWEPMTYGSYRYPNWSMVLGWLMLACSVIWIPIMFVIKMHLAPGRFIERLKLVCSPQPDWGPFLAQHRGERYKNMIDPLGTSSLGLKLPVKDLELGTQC
IC50 [1],IC50 [2],SMILES
0.056 µM,> 75 µM,"O=C(NCC1(N2CCN(S(=O)(=O)CC3CC3)CC2)CCCCC1)c1ccc(Cl)cc1Cl [compound 84, 2,4-Dichloro-N-((1-(4-(cyclopropylmethyl-sulfonyl)piperazin-1-yl)cyclohexyl)methyl) benzamide Hydrochloride]"
0.182 µM,> 75 µM,"Cc1cc(F)ccc1C(=O)NCC1(N2CCN(S(=O)(=O)CC3CC3)CC2)CCCCCC1 [compound 85, N-((1-(4-(Cyclopropylmethyl-sulfonyl)piperazin-1-yl)cycloheptyl)methyl)-4-fluoro-2-methylbenzamide Hydrochloride]"
0.099 µM,> 75 µM,"COc1cc(F)cc(C)c1C(=O)NCC1(N2CCN(S(=O)(=O)CC3CC3)CC2)CCCCCC1 [compound 86, N-((1-(4-(Cyclopropylmethyl-sulfonyl)piperazin-1-yl)cycloheptyl)methyl)-4-fluoro-2-methoxy-6-methylbenzamide Hydrochloride]"
0.155 µM,> 75 µM,"CCS(=O)(=O)N1CCN(C2(CNC(=O)c3c(C)cc(F)cc3OC)CCCCCC2)CC1 [compound 87, N-((1-(4-(Ethylsulfonyl)piperazin-1-yl)cycloheptyl)methyl)-4-fluoro-2-methoxy-6-methylbenzamide Hydrochloride]"
0.195 µM,> 75 µM,"CCS(=O)(=O)N1CCN(C2(CNC(=O)c3c(Cl)cccc3Cl)CCCCCC2)CC1 [compound 88, 2,6-Dichloro-N-((1-(4-(ethylsulfonyl)piperazin-1-yl)cycloheptyl)methyl) benzamide Hydrochloride]"
2.29 µM,> 75 µM,"Nc1cccc(Cl)c1C(=O)NCC1(N2CCN(S(=O)(=O)c3ccccc3)CC2)CCCCC1 [compound 89, 2-Amino-6-chloro-N-((1-(4-(phenylsulfonyl)piperazin-1-yl)cyclohexyl)methyl) benzamide Hydrochloride]"
0.339 µM,> 75 µM,"CS(=O)(=O)N1CCN(C2(CNC(=O)c3c(N)cccc3Cl)CCCCC2)CC1 [compound 90, 2-Amino-6-chloro-N-((1-(4-(methylsulfonyl)piperazin-1-yl)cyclohexyl)methyl) benzamide Hydrochloride]"
0.952 µM,54.8 µM,"CC(C)CS(=O)(=O)N1CCN(C2(CNC(=O)c3c(N)cccc3Cl)CCCCC2)CC1 [compound 92, 2-Amino-6-chloro-N-((1-(4-(isobutylsulfonyl)piperazin-1-yl)cyclohexyl)methyl) benzamide Hydrochloride]"
0.319 µM,> 75 µM,"O=C(NCC1(N2CCN(S(=O)(=O)C3CCC3)CC2)CCCCC1)c1ccc(Cl)cc1Cl [compound 93, 2,4-Dichloro-N-((1-(4-(cyclobutylsulfonyl)piperazin-1-yl)cyclohexyl)methyl)benzamide Hydrochloride]"
0.013 µM,> 75 µM,"Cc1ccc(C(=O)NCC2(N3CCN(S(=O)(=O)c4cn(C)cn4)CC3)CCCCC2)c(C)c1 [compound 94, 2,4-Dimethyl-N-((1-(4-(1-methyl-1H-imidazol-4-ylsulfonyl)piperazin-1-yl)cyclohexyl)methyl) benzamide Hydrochloride]"

# Continued, compound first:
SMILES,IC50 [1],IC50 [2]
"CCCS(=O)(=O)N1CCN(C2(CNC(=O)c3ccc(Cl)c(Cl)c3)CCCCCC2)CC1 [compound 68, 3,4-Dichloro-N-((1-(4-(propylsulfonyl)piperazin-1-yl)cycloheptyl)methyl) benzamide Hydrochloride]",0.174 µM,3.15 µM
"CCCS(=O)(=O)N1CCN(C2(CNC(=O)c3c(C)cc(F)cc3OC)CCCCCC2)CC1 [compound 69, 4-Fluoro-2-methoxy-6-methyl-N-((1-(4-(propylsulfonyl)piperazin-1-yl)cycloheptyl)methyl) benzamide Hydrochloride]",0.004 µM,> 75 µM
"CCCS(=O)(=O)N1CCN(C2(CNC(=O)c3c(OC)cc(C(F)(F)F)cc3C(F)(F)F)CCCCCC2)CC1 [compound 70, 2-Methoxy-N-((1-(4-(propylsulfonyl)piperazin-1-yl)cycloheptyl)methyl)-4,6-bis(trifluoromethyl) benzamide Hydrochloride]",0.009 µM,> 75 µM
"CCCS(=O)(=O)N1CCN(C2(CNC(=O)c3ccc(F)cc3C(F)(F)F)CCCCCC2)CC1 [compound 71, 4-Fluoro-N-((1-(4-(propylsulfonyl)piperazin-1-yl)cycloheptyl)methyl)-2-(trifluoromethyl)benzamide Hydrochloride]",0.022 µM,> 75 µM
"CCCS(=O)(=O)N1CCN(C2(CNC(=O)c3ccc(Cl)cc3Cl)CCCC2)CC1 [compound 72, 2,4-Dichloro-N-((1-(4-(propylsulfonyl)piperazin-1-yl)cyclopentyl)methyl) benzamide Hydrochloride]",0.171 µM,> 75 µM
"CCCS(=O)(=O)N1CCN(C2(CNC(=O)c3c(OC)cc(F)cc3SC)CCCC2)CC1 [compound 74, 4-Fluoro-2-methoxy-6-(methylthio)-N-((1-(4-(propylsulfonyl)piperazin-1-yl)cyclopentyl)methyl) benzamide Hydrochloride]",0.131 µM,> 75 µM
"CCCS(=O)(=O)N1CCN(C2(CNC(=O)c3c(C)cc(F)cc3OC)CCCC2)CC1 [compound 75, 4-Fluoro-2-methoxy-6-methyl-N-((1-(4-(propylsulfonyl)piperazin-1-yl)cyclopentyl)methyl) benzamide Hydrochloride]",0.268 µM,> 75 µM
"CCCS(=O)(=O)N1CCN(C2(CNC(=O)c3c(N)cccc3Cl)CCCC2)CC1 [compound 77, 2-Amino-6-chloro-N-((1-(4-(propylsulfonyl)piperazin-1-yl)cyclopentyl)methyl) benzamide Hydrochloride]",0.183 µM,> 30 µM
"COc1cc(F)cc(C)c1C(=O)NCC1(N2CCN(S(=O)(=O)CC3CC3)CC2)CCCCC1 [compound 79, N-((1-(4-(Cyclopropylmethyl-sulfonyl)piperazin-1-yl)cyclohexyl)methyl)-4-fluoro-2-methoxy-6-methylbenzamide Hydrochloride]",0.029 µM,> 75 µM
"Cc1cccc(F)c1C(=O)NCC1(N2CCN(S(=O)(=O)CC3CC3)CC2)CCCCC1 [compound 80, N-((1-(4-(Cyclopropylmethyl-sulfonyl)piperazin-1-yl)cyclohexyl)methyl)-2-fluoro-6-methylbenzamide Hydrochloride]",0.029 µM,> 75 µM
"O=C(NCC1(N2CCN(S(=O)(=O)CC3CC3)CC2)CCCCC1)c1c(F)cccc1F [compound 81, N-((1-(4-(Cyclopropylmethyl-sulfonyl)piperazin-1-yl)cyclohexyl)methyl)-2,6-difluorobenzamide Hydrochloride]",0.061 µM,> 75 µM
"COc1cc(F)cc(SC)c1C(=O)NCC1(N2CCN(S(=O)(=O)CC3CC3)CC2)CCCCC1 [compound 82, N-((1-(4-(Cyclopropylmethyl-sulfonyl)piperazin-1-yl)cyclohexyl)methyl)-4-fluoro-2-methoxy-6-(methylthio)benzamide Hydrochloride]",0.05 µM,> 75 µM
"COc1cccc(F)c1C(=O)NCC1(N2CCN(S(=O)(=O)CC3CC3)CC2)CCCCC1 [compound 83, N-((1-(4-(Cyclopropylmethyl-sulfonyl)piperazin-1-yl)cyclohexyl)methyl)-2-fluoro-6-methoxybenzamide Hydrochloride]",0.057 µM,> 75 µM
